Results on 36 compounds are retold here after patent US7208528B1, “Polyamine analogues as therapeutic and diagnostic agents” (MediQuest Therapeutics, Inc., priority 1997, dated 2007).

Data set [1] has as its system polyamine transporter (PATr). As to the kind of experiment: Polyamine transport (PAT) inhibition assay, 3H-spermidine uptake into MDA-MB-231 cells. To be noted: for Ki: MDA-MB-231 cells. Format: cell-based, human. As to the method: (§1) The radiometric assay uses radiolabeled polyamines such as putrescine, spermidine or spermine, but, due to the low signal, large numbers of adherent or non-adherent cells are required. Additional care is required with spermine due to its nonspecific adsorption to cells and plastics. Cells are mixed with the test compounds and the radiolabeled polyamine to initiate the assay. The cells are incubated for 1–60 minutes, depending on cell type. The assay is terminated by removal of the medium and cooling the plates to 4° C. The cells are then washed with cold medium three times, dissolved in 0.1% sodium dodecyl sulfate and the radioactivity in solution is then determined by scintillation counting. This assay is difficult to scale up to a high throughput procedure due to the low signal from the radiolabel and the handling requirements inherent in procedures with radioactivity.
Therefore, the growth assay and a kinetic transport assay have been used to validate transport inhibition.
The polyamine analogues and derivatives of the invention may be evaluated for their ability to inhibit the uptake of spermidine into MDA cells in culture. Joro spider toxin JSTx-3 is available from Calbiochem; 1-Naphthylacetylspermine is available from RBI. Deoxyspergualin was a generous gift from Paul Gladstone.
300 nM 1202 was the maximum concentration tested in initial rate transport assays.

The subject of data set [2] is MDA-MB-231 cells. The data set can be described thus: Growth assay of MDA-MB-231 cells with ODC inhibitor (DFMO) and 1 μM spermidine. To be noted: for IC50 with DFMO, result in words / IC50: 1 μM spermidine; for IC50: read-out: IC50 for growth in combination with ODC inhibitor (DFMO), 230 μM DFMO; for R, ratio of IC50 in the absence of DFMO over IC50 in the presence of DFMO: MDA growth assay; for concentration added to culture media at which growth inhibition due to 1202 and DFMO begins to reverse: cells treated with 1202 and DFMO.
Description: The estrogen insensitive human breast carcinoma MDA-MB-231 cell line as the primary cell line in the screen. […] In order to optimize the screen for polyamine transport inhibition, 1.0 μM spermidine was added to media to reverse the effects of ODC inhibitors. The assay was also performed over seven days because this allows for the greatest dynamic range in cell growth due to the mechanism of ODC inhibitors. Cells need to divide several times before the intracellular level of polyamines begin to decrease to growth inhibitory levels.
Compounds were tested for their ability to inhibit cell growth in the presence of 1 μM spermidine and 230 μM ODC inhibitor for the MDA-MB-231 cells or 1 mM ODC inhibitor for the PC3 cells.
In our six day growth assays, 1202 was tested at increasing concentrations with the optimal concentration of DFMO.

The subject of data set [3] is MDA breast carcinoma cells. As to the kind of experiment: Rescue from DFMO-induced growth inhibition of MDA cells without added polyamines, six day growth assay. Format: cell-based, human. Conditions: absence of polyamines. On the procedure:
An additional series of spermine amides were evaluated to extend the structure-activity relationship around this polyamine transport target.
Growth assays were done over a six day period in order to allow for polyamine depletion within cells. When synthesis of polyamines is inhibited, cells compensate by increasing transport of extracellular polyamines into the cell. Over the time course of the assay, polyamines in the culture media may be depleted resulting in growth inhibition.

For data set [4], the system named is T-cell acute lymphoblastic leukemias (ALL), glioblastomas, prostate, and colon cell lines. As to the kind of experiment: In vitro test in combination with ODC inhibitors against several human cancer cell lines. Type of data set: cell-based. On the procedure: DACS was tested in vitro in combination with ODC inhibitors against several human cancer cell lines. These include T-cell acute lymphoblastic leukemias (ALL), glioblastomas, prostate, and colon cell lines.

The target of data set [5] is spermidine/spermine acetyltransferase (SSAT) (Homo sapiens, UniProt P21673). The data set can be described thus: Spermidine/spermine acetyltransferase enzymatic activity, 14C-acetyl CoA incorporation. Type of data set: biochemical. To be noted: 1 mM spermidine, 1 mM 14C-acetyl CoA, pH 7.8. On the procedure:
A study was conducted to determine whether the compositions of the present invention, designed as PAT inhibitors, had other activities on the PA system. Specifically, the ability of DACS to inhibit an enzyme involved in PA recycling was evaluated. The method used was as described in Casero, R. A. et al., Biochem. J. 270:615–620 (1990) hereby incorporated by reference in its entirety. This assay measures the incorporation of ^14C-labeled acetyl CoA into spermidine to form acetylspermidine. Varying concentrations of DACS were added to a reaction mixture containing HEPES buffer, pH 7.8, 1 mM spermidine, and 1 mM ^14C-Acetyl CoA. The product is isolated by binding to phosphocellulose filter paper and the extent of reaction is determined by scintillation counting.

Data set [6] has as its system cancer cells. To be noted: cited from earlier work.
Data set [7] deals with polyamine transporter (PATr). As to the kind of experiment: Radiometric PAT assay in A172 glioblastoma cells. Type of data set: cell-based. Conditions: A172 cell line. On the procedure:
as §1

For orientation: Ki means a measure of affinity in units of concentration, obtained from inhibition or displacement. One may read the IC50 as the concentration that gives 50% inhibition. A word on the Km: it is the substrate concentration at which the rate is half of its maximum.

SMILES strings stand for the structures.

spermidine/spermine acetyltransferase (SSAT), sequence (P21673 whole entry, species assumed): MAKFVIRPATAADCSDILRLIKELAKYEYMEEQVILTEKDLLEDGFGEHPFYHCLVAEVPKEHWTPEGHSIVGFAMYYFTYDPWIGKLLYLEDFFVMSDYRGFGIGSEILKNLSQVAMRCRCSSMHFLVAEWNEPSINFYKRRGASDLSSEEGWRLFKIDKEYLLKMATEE

The compound `NCCCNCCCCNCCCNC(=O)C(N)CC1CCCCC1` [Compound 1227, N^1-Spermine-L-cyclohexanealanyl amide] yielded a Ki in data set [1] of 0.241 µM.

Turning to `NCCCNCCCCNCCCNC(=O)CN` [Compound 1125, N^1-Spermine-glycinyl amide], the Ki in data set [1] came out at 0.087 µM. Further, in data set [2], the “IC50 with DFMO, result in words” value is recorded as “failed to give effective IC50 values”. Moreover, in data set [3], the “rescue of cells from growth inhibitory effects of DFMO” value is on record as “able to rescue”.

In turn, `N=C(N)NCCCCCCC(=O)NC(O)C(=O)NCCCCNCCCN` (stereo not shown) [Compound 1085, deoxyspergualin, reference compound] returned a Ki in data set [1] of 0.081 µM.

With `CN(C)c1cccc2c(S(=O)(=O)NCCCCCC(=O)NCCCNCCCCNCCCN)cccc12` [Compound 4, N^1-[(N^6-dansyl)-6-aminocaproyl]spermine], the “effect against tumor cell lines in vitro” value in data set [4] is “effective”. For the same compound, the “affinity higher than the compound reported by Felschow et al.” value in data set [1] turned out to be 100 times. The “increase in binding to the PATr by six carbon linker” value in data set [1] (versus compound without linker) amounted to 10 fold. In addition, in data set [2] (alone, without ODC inhibitor), the “concentration at which compound alone becomes growth inhibitory” value was 300 µM. Further, the half-inhibitory concentration (IC50) in data set [2] came to 0.6 µM. Besides, the “reduction of cell growth” value in data set [2] (with ODC inhibitor in the presence of polyamines, day 3) was 69%. The “inhibition of SSAT enzymatic activity” value in data set [5] is on record as “inhibited”.

`CCC(C)C(N)C(=O)NCCCNCCCCNCCCN` [Compound 1228, N^1-Spermine-L-isoleucinyl amide] gave a Ki in data set [1] of 0.124 µM. The IC50 in data set [2] worked out at 9 µM.

In the case of `CC(C)(C)OC(=O)NCCCNCCCCNCCCN` [Compound 1163, N^1-boc-spermine], in data set [1], the affinity corresponds to a Ki of 0.083 µM.

Regarding `NCCCNCCCCNCCCNC(=O)CCCCCNS(=O)(=O)c1ccc(CNC(=O)c2ccc(Cl)cc2)s1` [Compound 5, N^1-[(N^6-5-(4-chlorobenzamidomethyl)-thiophene-2-sulfonyl)-6-aminocaproyl]spermine], the “R, ratio of IC50 in the absence of DFMO over IC50 in the presence of DFMO” value in data set [2] was 210.

On to `NCCCNCCCCNCCCNC(=O)C(N)Cc1c[nH]c2ccccc12` [Compound 1095, N^1-Spermine-L-tryptophanyl amide], for which the Ki in data set [1] came out at 0.162 µM. The IC50 in data set [2] amounted to 15 µM.

For `NCCCNCCCCNCCCNC(=O)[C@@H]1CCCN1` [Compound 1159, N^1-Spermine-L-prolinyl amide], in data set [1], the inhibition constant (Ki) stood at 0.038 µM. In addition, the IC50 in data set [2] came to 5 µM. Moreover, the “rescue of cells from growth inhibitory effects of DFMO” value in data set [3] is “able to rescue”.

Take `CC(N)C(=O)NCCCNCCCCNCCCN` [Compound 1178, N^1-Spermine-L-alanyl amide]: in data set [1], the Ki was determined as 0.244 µM. This lies in the sub-micromolar range.

Consider `NCCCNCCCCNCCCNC(=O)C(N)CC(N)=O` [Compound 1131, N^1-Spermine-L-asparaginyl amide], for which affinity in data set [1] was put at a Ki of 0.032 µM.

Consider `NCCCCN` [PUT, putrescine, reference compound], for which the “concentration added to culture media at which growth inhibition due to 1202 and DFMO begins to reverse” value in data set [2] was “greater than 10 μM”.

`CSCCC(N)C(=O)NCCCNCCCCNCCCN` [Compound 1164, N^1-Spermine-L-methionyl amide] came in with a Ki in data set [1] of 0.034 µM. Also, the “IC50 with DFMO, result in words” value in data set [2] is on record as “failed to give effective IC50 values”.

As for `NCCCNCCCCNCCCN` [SPM, spermine, reference compound], the “concentration added to culture media at which growth inhibition due to 1202 and DFMO begins to reverse” value in data set [2] came to 1 µM.

`NCCCNCCCCNCCCNC(=O)C(N)Cc1ccc(O)cc1` [Compound 1173, N^1-Spermine-L-tyrosinyl amide] showed a Ki in data set [1] of 0.077 µM.

On to `NCCCCN(CCCN)CCCNC(=O)CCCc1ccc(N(CCCl)CCCl)cc1` [chlorambucil-spermidine conjugate], for which, in data set [6], the “increase in cytotoxicity compared to chlorambucil alone” value is on record as at most 225 fold.

For the compound `CC(C)C(N)C(=O)NCCCNCCCCNCCCN` [Compound 1196, N^1-Spermine-D-valinyl amide], the affinity in data set [1], expressed as Ki, was 0.048 µM. Moreover, the IC50 in data set [2] worked out at 9 µM.

In turn, `CC(C)(C)C(N)C(=O)NCCCNCCCCNCCCN` [Compound 1194, N^1-Spermine-L-^tbutylglycinyl amide] came in with a Ki in data set [1] of 0.212 µM. In addition, in data set [2], the half-maximal inhibitory concentration (IC50) worked out at 11 µM.

On to `CN(C)CCCN1c2ccccc2CCc2ccccc21` [Compound 165, imipramine, reference compound], for which the “type of PAT inhibition” value in data set [1] (A172 and MDA cells) is reported as “non-competitive”. Besides, the “inhibition of the PAT assay” value in data set [1] (MDA cell line) and in data set [7] was “inhibited” each time.

For the compound `NCCCNCCCCNCCCNC(=O)C(N)CO` [Compound 1187, N^1-Spermine-L-serinyl amide], the inhibition constant (Ki) in data set [1] turned out to be 0.045 µM. Moreover, in data set [2], the IC50 was 26 µM.

`NCCCNCCCCNCCCNC(=O)CCN` [Compound 1177, N^1-Spermine-β-alanyl amide] displayed a Ki in data set [1] of 0.071 µM. For the same compound, in data set [2], the “IC50 with DFMO, result in words” value is “failed to give effective IC50 values”.

The compound `NCCCCCC(=O)NCCCNCCCCNCCCN` [Compound 1094, N^1-[6-aminocaproylspermine]] had a Ki in data set [1] of 0.069 µM. In data set [3], the “rescue of cells from growth inhibitory effects of DFMO” value was “able to rescue”.

As for `NCCCNCCCCNCCC(=O)NCCCCCNC(=O)[C@H](CC(N)=O)NC(=O)Cc1ccc(O)cc1O` [Compound 1111, reference compound], the inhibition constant (Ki) in data set [1] stood at 0.19 µM.

Regarding `NCCCNCCCCNCCCNC(=O)C(N)CCCN` [Compound 1224, N^1-Spermine-L-ornithyl amide], the inhibition constant (Ki) in data set [1] was 0.047 µM. In addition, the IC50 in data set [2] is 3 µM. The “rescue of cells from growth inhibitory effects of DFMO” value in data set [3] is recorded as “not able to rescue”.

`NCCCNCCCCNCCCNC(=O)C(N)Cc1c[nH]c2ccccc12` [Compound 1309, N^1-Spermine-D-tryptophanyl amide] gave a Ki in data set [1] of 0.026 µM. This lies in the double-digit nanomolar range.

For the compound `CC(O)C(N)C(=O)NCCCNCCCCNCCCN` [Compound 1207, N^1-Spermine-L-threoninyl amide], the Ki in data set [1] is 0.13 µM. Further, the IC50 in data set [2] came to 6 µM.

Turning to `NCCCNCCCCNCCCNC(=O)CC12CC3CC(CC(C3)C1)C2` [Compound 1212, N^1-Spermine 2-(1-adamantyl)acetamide], in data set [2], the concentration for half-maximal inhibition (IC50) was 9 µM.

In the case of `NCCCCNCCCN` [spermidine, reference compound], the Km in data set [1] (MDA cells, read-out: Km for the transport system) worked out at 0.52 µM. Besides, in data set [2], the “concentration added to culture media at which growth inhibition due to 1202 and DFMO begins to reverse” value came to 1 µM.

In data set [1], `CC(C)C(N)C(=O)NCCCNCCCCNCCCN` [Compound 1157, N^1-Spermine-L-valinyl amide] gave a Ki of 0.084 µM. Besides, in data set [2], the half-maximal inhibitory concentration (IC50) was 16 µM. In addition, in data set [3], the “rescue of cells from growth inhibitory effects of DFMO” value was “not able to rescue”.

In turn, `CC(C)(N)C(=O)NCCCNCCCCNCCCN` [Compound 1220, N^1-Spermine-α-aminoisobutyryl amide] had a Ki in data set [1] of 0.16 µM. In addition, in data set [2], the IC50 is 8 µM.

Regarding `NCCCNCCCCNCCCNC(=O)Cc1cccc2ccccc12` [Compound 1022, 1-Naphthylacetylspermine, reference compound], the Ki in data set [1] was found to be 0.23 µM. For the same compound, the IC50 in data set [2] was determined as 8.3 µM.

On to `NCCCNCCCCNCCCNC(=O)C(N)CCC(N)=O` [Compound 1154, N^1-Spermine-L-glutaminyl amide], for which, in data set [1], the Ki amounted to 0.047 µM. In addition, the “IC50 with DFMO, result in words” value in data set [2] is “failed to give effective IC50 values”.

In the case of `CC(=O)NCCCNCCCCNCCCN` [Compound 1110, N^1-acetylspermine, reference compound], the “greater affinity for the transport system than spermidine” value in data set [1] (Ki versus Km of spermidine) was determined as 3 fold. In addition, in data set [1], the inhibition constant Ki was determined as 0.162 µM.

Consider `CC(C)CC(N)C(=O)NCCCNCCCCNCCCN` [Compound 1230, N^1-Spermine-L-leucinyl amide], for which the inhibition constant (Ki) in data set [1] came to 0.032 µM. Also, the “IC50 with DFMO, result in words” value in data set [2] is on record as “failed to give effective IC50 values”.

Take `NCCCNCCCCNCCCNC(=O)CCCCCNS(=O)(=O)c1ccc2oc3ccccc3c2c1` [Compound 6]: the “R, ratio of IC50 in the absence of DFMO over IC50 in the presence of DFMO” value in data set [2] is 220.

Turning to `NCCCNCCCCNCCCNC(=O)C12CC3CC(CC(C3)C1)C2` [Compound 1235, N^1-spermine 1-adamantylamide], the affinity in data set [1] corresponds to a Ki of 1.14 µM.
